In patent US11041009B2, “Glucose responsive insulin comprising a tri-valent sugar cluster for treatment of diabetes” (Merck Sharp & Dohme Corp., priority 2017, dated 2021):

Experiments:
human IR(B) = target: T1, human IR(B) (Homo sapiens, UniProt P06213); experiment: Insulin Receptor Phosphorylation Assay (MSD pIR assay; Methods A and B); format: cell-based; conditions: Method B: IR phosphorylation assay, 384-well with automated liquid dispense; CHO cells expressing human IR(B); read-out: IR Activation IP†
T1 construct: expressed in transfected cells
Method: Insulin Receptor Phosphorylation Assays were performed as follows.
Cells were harvested and frozen in aliquots for use in the MSD pIR assay. Briefly, the frozen cells were plated in either 96-well (40,000 cells/well, Method A) or 384-well (10,000 cells/well, Method B) clear tissue culture plates and allowed to recover. IOC molecules at the appropriate concentrations were added and the cells incubated for 8 min at 37° C. The media was aspirated and chilled MSD cell lysis buffer was added as per MSD kit instructions. The cells were lysed on ice for 40 min and the lysate then mixed for 10 minutes at room temperature. The lysate was transferred to the MSD kit pIR detection plates. The remainder of the assay was carried out following the MSD kit recommended protocol.

[1] = target: T2, Human macrophage mannose receptor 1 (MRC1) (Homo sapiens, UniProt P22897); experiment: MRC1 competition binding assay with Eu-labeled mannosylated-BSA (Methods E and F); conditions: Method F: MRC1 assay in a 384-well plate; read-out: MRC1 Binding IP‡
T2 sequence (P22897 19-1456): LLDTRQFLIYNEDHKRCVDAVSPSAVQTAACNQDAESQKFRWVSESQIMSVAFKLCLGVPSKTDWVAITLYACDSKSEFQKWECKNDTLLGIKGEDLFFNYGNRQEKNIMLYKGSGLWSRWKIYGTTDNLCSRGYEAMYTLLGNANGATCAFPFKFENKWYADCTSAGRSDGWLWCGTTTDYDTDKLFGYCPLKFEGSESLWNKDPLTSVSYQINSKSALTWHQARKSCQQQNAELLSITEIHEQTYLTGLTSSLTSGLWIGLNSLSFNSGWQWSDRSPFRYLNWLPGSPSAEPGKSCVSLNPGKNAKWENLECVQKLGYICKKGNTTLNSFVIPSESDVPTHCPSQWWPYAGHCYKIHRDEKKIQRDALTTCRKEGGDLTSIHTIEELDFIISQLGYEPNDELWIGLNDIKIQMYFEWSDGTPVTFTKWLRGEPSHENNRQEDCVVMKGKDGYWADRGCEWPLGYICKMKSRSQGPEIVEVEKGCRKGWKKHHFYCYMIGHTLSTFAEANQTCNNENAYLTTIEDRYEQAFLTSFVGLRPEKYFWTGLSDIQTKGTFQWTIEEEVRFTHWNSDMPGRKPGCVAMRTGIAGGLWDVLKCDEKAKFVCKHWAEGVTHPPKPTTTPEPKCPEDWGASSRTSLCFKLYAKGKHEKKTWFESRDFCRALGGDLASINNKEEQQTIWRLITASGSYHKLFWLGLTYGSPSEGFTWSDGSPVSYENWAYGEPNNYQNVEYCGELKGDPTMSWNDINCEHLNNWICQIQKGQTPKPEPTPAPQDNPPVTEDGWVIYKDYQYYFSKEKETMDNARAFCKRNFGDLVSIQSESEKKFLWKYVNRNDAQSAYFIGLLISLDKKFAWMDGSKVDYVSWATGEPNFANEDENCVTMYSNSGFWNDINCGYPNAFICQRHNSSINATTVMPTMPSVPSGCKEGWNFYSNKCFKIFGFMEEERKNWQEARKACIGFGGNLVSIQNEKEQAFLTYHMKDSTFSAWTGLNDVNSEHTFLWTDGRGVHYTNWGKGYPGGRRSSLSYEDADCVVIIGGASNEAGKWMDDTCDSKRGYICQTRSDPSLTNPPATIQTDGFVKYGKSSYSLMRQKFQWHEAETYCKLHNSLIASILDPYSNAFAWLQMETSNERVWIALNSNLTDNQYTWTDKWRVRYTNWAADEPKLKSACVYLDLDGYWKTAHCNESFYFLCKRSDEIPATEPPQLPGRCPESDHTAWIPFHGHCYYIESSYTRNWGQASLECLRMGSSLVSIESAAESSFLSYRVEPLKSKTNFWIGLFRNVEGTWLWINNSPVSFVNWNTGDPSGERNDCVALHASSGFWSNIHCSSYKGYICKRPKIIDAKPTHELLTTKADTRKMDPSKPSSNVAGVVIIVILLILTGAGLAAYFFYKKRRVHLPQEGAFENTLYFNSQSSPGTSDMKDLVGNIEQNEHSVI
Method: Human macrophage mannose receptor 1 (MRC1) Binding Assays were performed as follows.
The competition binding assay for MRC1 utilized a ligand, mannosylated-BSA labeled with the DELFIA Eu-N1-ITC reagent, as reported in the literature. Assay was performed either in a 96-well plate with 100 μL well volume (Method E) or in a 384-well plate with 25 μL well volume (Method F). […] The antibody was incubated in the plate for 1 hr at room temperature with shaking. The plate was washed with wash buffer 3-5 times followed by addition of MRC1 (2 ng/μl final concentration) in PBS containing 1% stabilizer BSA. The plate was incubated at room temperature with gentle shaking for 1 hr. The plate was washed three times with wash buffer. The IOC molecules in 12.5 μL (or 50 μL depending on plate format) buffer at appropriate concentrations were added followed by 12.5 μL (or 50 μL) Eu-mannosylated-BSA (0.1 nM final concentration) in 50 mM Tris, pH 7.5 containing 100 mM NaCl, 5 mM CaCl2, 1 mM MgCl2 and 0.2% stabilizer BSA. The plate was incubated for 2 hrs at room temperature with shaking followed by washing three times with wash buffer. Perkin Elmer Eu-inducer reagent was added and incubated for 30 min at room temperature prior to detection of the Eu signal (Excitation=340 nm: Emission=615 nm).

[2] = target: human insulin receptor type B (IR(B)) (Homo sapiens, UniProt P06213); experiment: Insulin Receptor Binding Assay, scintillation proximity assay with cell membranes (Method D)
Chain of human insulin receptor type B (IR(B)) (P06213 28-758 limits assumed): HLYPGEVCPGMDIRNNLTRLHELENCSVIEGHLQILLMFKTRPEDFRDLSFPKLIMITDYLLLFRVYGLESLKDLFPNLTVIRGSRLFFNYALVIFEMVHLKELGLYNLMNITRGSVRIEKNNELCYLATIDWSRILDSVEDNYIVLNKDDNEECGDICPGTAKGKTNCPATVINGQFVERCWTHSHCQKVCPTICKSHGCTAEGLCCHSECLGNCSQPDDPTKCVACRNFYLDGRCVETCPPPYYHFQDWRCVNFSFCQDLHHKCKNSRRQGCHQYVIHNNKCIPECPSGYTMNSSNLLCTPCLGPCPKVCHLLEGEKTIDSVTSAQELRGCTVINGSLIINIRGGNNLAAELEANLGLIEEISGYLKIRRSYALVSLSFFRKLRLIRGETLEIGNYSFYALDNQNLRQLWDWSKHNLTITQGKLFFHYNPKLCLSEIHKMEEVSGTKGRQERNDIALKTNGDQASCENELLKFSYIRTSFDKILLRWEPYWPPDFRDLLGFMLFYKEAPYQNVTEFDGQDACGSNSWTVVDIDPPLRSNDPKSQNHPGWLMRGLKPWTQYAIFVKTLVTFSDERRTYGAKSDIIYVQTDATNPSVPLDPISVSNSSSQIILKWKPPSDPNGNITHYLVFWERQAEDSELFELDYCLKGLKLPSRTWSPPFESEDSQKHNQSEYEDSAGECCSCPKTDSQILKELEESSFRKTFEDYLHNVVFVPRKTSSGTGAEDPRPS
Chain of human insulin receptor type B (IR(B)) (P06213 763-1382 partner limits assumed): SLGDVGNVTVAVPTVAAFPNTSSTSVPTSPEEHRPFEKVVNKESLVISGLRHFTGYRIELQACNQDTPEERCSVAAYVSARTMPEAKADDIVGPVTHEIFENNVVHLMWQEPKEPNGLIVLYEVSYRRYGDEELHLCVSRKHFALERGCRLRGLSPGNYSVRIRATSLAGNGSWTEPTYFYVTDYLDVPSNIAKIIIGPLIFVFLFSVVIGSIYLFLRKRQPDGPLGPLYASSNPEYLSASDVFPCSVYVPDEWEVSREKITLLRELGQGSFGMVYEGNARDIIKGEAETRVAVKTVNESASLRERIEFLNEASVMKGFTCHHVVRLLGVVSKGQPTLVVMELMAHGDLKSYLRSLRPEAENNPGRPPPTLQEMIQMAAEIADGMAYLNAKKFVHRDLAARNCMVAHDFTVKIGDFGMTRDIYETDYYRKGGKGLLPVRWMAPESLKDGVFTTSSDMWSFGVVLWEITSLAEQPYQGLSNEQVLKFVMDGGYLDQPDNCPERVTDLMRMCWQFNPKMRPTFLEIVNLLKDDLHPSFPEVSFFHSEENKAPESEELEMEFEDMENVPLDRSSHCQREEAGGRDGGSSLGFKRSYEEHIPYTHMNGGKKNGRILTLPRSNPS

T1 sequence (P06213 28-758 limits assumed): as the sequence (P06213 28-758 limits assumed) above
T1 sequence (P06213 763-1382 partner limits assumed): as the sequence (P06213 763-1382 partner limits assumed) above

Question: With CC[C@H](C)[C@H](NC(=O)CN)C(=O)N[C@H](C(=O)N[C@@H](CCC(=O)O)C(=O)N[C@@H](CCC(N)=O)C(=O)N[C@H]1CSSC[C@@H]2NC(=O)[C@H]([C@@H](C)CC)NC(=O)[C@H](CO)NC(=O)[C@H]([C@@H](C)O)NC(=O)[C@H](CSSC[C@H](NC(=O)[C@H](CC(C)C)NC(=O)[C@H](Cc3c[nH]cn3)NC(=O)[C@H](CCC(N)=O)NC(=O)[C@H](CC(N)=O)NC(=O)[C@@H](NC(=O)[C@H](Cc3ccccc3)NC(=O)CCCCC(=O)N(CC(=O)NCCO[C@@H]3O[C@H](CO)[C@@H](O)[C@H](O)[C@H]3O)CC(=O)N(CCO[C@H]3O[C@H](CO)[C@@H](O)[C@H](O)[C@@H]3O)CCO[C@H]3O[C@H](CO)[C@@H](O)[C@H](O)[C@@H]3O)C(C)C)C(=O)NCC(=O)N[C@@H](CO)C(=O)N[C@@H](Cc3c[nH]cn3)C(=O)N[C@@H](CC(C)C)C(=O)N[C@@H](C(C)C)C(=O)N[C@@H](CCC(=O)O)C(=O)N[C@@H](C)C(=O)N[C@@H](CC(C)C)C(=O)N[C@@H](Cc3ccc(O)cc3)C(=O)N[C@@H](CC(C)C)C(=O)N[C@@H](C(C)C)C(=O)N[C@H](C(=O)NCC(=O)N[C@@H](CCC(=O)O)C(=O)N[C@@H](CCCNC(=N)N)C(=O)NCC(=O)N[C@@H](Cc3ccccc3)C(=O)N[C@@H](Cc3ccccc3)C(=O)N[C@@H](Cc3ccc(O)cc3)C(=O)N[C@H](C(=O)N3CCC[C@H]3C(=O)N[C@@H](CCCCNC(=O)CCCCC(=O)N(CC(=O)NCCO[C@@H]3O[C@H](CO)[C@@H](O)[C@H](O)[C@H]3O)CC(=O)N(CCO[C@H]3O[C@H](CO)[C@@H](O)[C@H](O)[C@@H]3O)CCO[C@H]3O[C@H](CO)[C@@H](O)[C@H](O)[C@@H]3O)C(=O)N[C@H](C(=O)O)[C@@H](C)O)[C@@H](C)O)CSSC[C@@H](C(=O)N[C@@H](CC(N)=O)C(=O)O)NC(=O)[C@H](Cc3ccc(O)cc3)NC(=O)[C@H](CC(N)=O)NC(=O)[C@H](CCC(=O)O)NC(=O)[C@H](CC(C)C)NC(=O)[C@H](CCC(N)=O)NC(=O)[C@H](Cc3ccc(O)cc3)NC(=O)[C@H](CC(C)C)NC(=O)[C@H](CO)NC2=O)NC1=O)C(C)C [IOC-63] as the compound, how does the EC50 (human IR(B)) read?
Answer: 0.63 nM

Question: And the IC50 [1]?
Answer: 70.2 nM

Question: And the IC50 [2]?
Answer: 1.65 nM
